Usually CC50 stands for the concentration at which the toxic effect on the cells reaches its halfway point.

The nature of series [1]: Therapeutic index, ratio of CC50 for human MT4 cells to EC50 for HIV1 3B […] infected in human MT4 cells. It counts as toxicity, cell-based. Particulars: read-out: Ratio CC50/EC50.
Series [2] can be described thus: Cytotoxicity against human MT4 cells assessed as reduction in cell viability after 5 days by MTT assay. It counts as cell-based. (Tetrazolium assays rely on reduction of a dye to a coloured formazan, in cell work by metabolically active cells.)

Structures are written as SMILES.

With `CC(C)c1nc(CN(C)C(=O)N[C@H](C(=O)N[C@@H](Cc2ccccc2)C[C@H](O)[C@H](Cc2ccccc2)NC(=O)OCc2cncs2)C(C)C)c[se]1`, the selectivity ratio in series [1] stood at 76. Also, in series [2], the CC50 at 120 h was found to be 42 µM.
As for `CC(C)[C@H](NC(=O)N(C)Cc1c[se]c(-c2ccccc2)n1)C(=O)N[C@@H](Cc1ccccc1)C[C@H](O)[C@H](Cc1ccccc1)NC(=O)OCc1cncs1`, the selectivity ratio in series [1] was 124. In addition, the CC50 at 120 h in series [2] amounted to 21 µM.

(Values after ChEMBL document CHEMBL4118282 (Bioorg Med Chem Lett, 2018).)
